Reference: patent US10059741B2 (priority 2015, dated 2018)
Where two headings read alike, the source gives them in different places. Bridge positions count the residues as written; N and C are the ends. Square brackets hold non-standard residues; d marks the D form. Peptide text beside a SMILES is read from it. R8 = C=CCCCCCC[C@@](C)(N)C(=O)O; S5 = C=CCCC[C@](C)(N)C(=O)O; Nle = CCCC[C@H](N)C(=O)O

How the values were obtained:
H3N2 Perth/16/2009 [1] = test: microbe, parasite or virus in culture; assay type: cell-based, influenza A virus; conditions: for EC90: Influenza A H3N2 Perth/16/2009, Drug Assay Visual/Neutral Red
H1N1 California/07/2009 [2] = test: microbe, parasite or virus in culture; assay type: cell-based, influenza A virus; conditions: for EC90: Drug Assay Visual/Neutral Red
in vitro = conditions: dog
[3] = test system: influenza virus, various viral strains; test: organism not typed; assay type: cell-based; conditions: Influenza A H1N1 A/Solomon Is./3/2006-M; Drug Assay Visual; read-out: EC50
H7N9 A/Anhui/1/2013 = test: microbe, parasite or virus in culture; assay type: cell-based, influenza A virus; conditions: read-out: EC50
[4] = test system: H5N1 A/Hong Kong/213/2003; test: microbe, parasite or virus in culture; assay type: cell-based, influenza A virus; conditions: read-out: EC50
[5] = test system: H1N1 A/Solomon Island/03/2006; assay type: cell-based, influenza A virus; conditions: Influenza A H1N1 A/Solomon Is./3/2006-M; Drug Assay Neutral Red; read-out: EC50
H3N2 Perth/16/2009 [6] = test: microbe, parasite or virus in culture; assay type: cell-based, influenza A virus
H1N1 California/07/2009 [7] = test: microbe, parasite or virus in culture; assay type: cell-based, influenza A virus
[8] = Cytopathic effect/toxicity (Neutral red), MDCK cells, read-out: EC50 (μM) H3N2 Perth/16/2009
[9] = Influenza A H3N2 Perth/16/2006 (so in the source), Drug Assay Neutral Red, read-out: EC50
[10] = Influenza A H3N2 Perth/16/2009, last run, Drug Assay Neutral Red, read-out: EC50
[11] = Cytopathic effect/toxicity (Neutral red), MDCK cells, read-out: EC50 (μM) H1N1 California/07/2009
[12] = Influenza A H1N1 California/07/20/09 (so in the source), later run, Drug Assay Neutral Red, read-out: EC50
[13] = Influenza A H1N1 California/07/20/09 (so in the source)
[14] = Influenza A H1N1 California/07/2009, Drug Assay Neutral Red, read-out: EC50
[15] = CC50 (μM) H1N1 California/07/2009, Cell cytotoxicity (CC), run with H1N1 California/07/2009
[16] = CC50 (μM) H3N2 Perth/16/2009, Cell cytotoxicity (CC), run with H3N2 Perth/16/2009
[17] = CC50, run with Influenza A H1N1 A/Solomon Is./3/2006-M, Neutral Red
[18] = CC50, run with Influenza A H1N1 A/Solomon Is./3/2006-M, Visual
[19] = CC50, run with Influenza A H1N1 California/07/20/09 (so in the source), later run, Neutral Red
[20] = CC50, run with Influenza A H1N1 California/07/20/09 (so in the source), Visual/Neutral Red
[21] = CC50, run with Influenza A H1N1 California/07/2009, Neutral Red
[22] = CC50, run with Influenza A H1N1 California/07/2009, Visual
[23] = CC50, run with Influenza A H3N2 Perth/16/2006 (so in the source), Neutral Red
[24] = CC50, run with Influenza A H3N2 Perth/16/2006 (so in the source), Visual
[25] = CC50, run with Influenza A H3N2 Perth/16/2009, last run, Neutral Red
[26] = CC50, run with Influenza A H3N2 Perth/16/2009, Visual/Neutral Red
[27] = Cytopathic effect/toxicity (Visual), MDCK cells, read-out: EC50 (μM) H3N2 Perth/16/2009
[28] = Influenza A H3N2 Perth/16/2006 (so in the source), Drug Assay Visual, read-out: EC50
[29] = Cytopathic effect/toxicity (Visual), MDCK cells, read-out: EC50 (μM) H1N1 California/07/2009
[30] = Influenza A H1N1 California/07/2009, Drug Assay Visual, read-out: EC50

Row | Compound | EC50 (H3N2 Perth/16/2009 [1]; [8]) [µM] | EC50 (H3N2 Perth/16/2009 [1]; [9]) [µM] | EC50 (H3N2 Perth/16/2009 [1]; [10]) [µM] | EC90 (H3N2 Perth/16/2009 [1]) [µM] | EC50 (H1N1 California/07/2009 [2]; [11]) [µM] | EC50 (H1N1 California/07/2009 [2]; [12]) [µM] | EC90 (H1N1 California/07/2009 [2]; [13]) [µM] | EC50 (H1N1 California/07/2009 [2]; [14]) [µM] | CC50 (in vitro; CC50) [µM] | CC50 (in vitro; [15]) [µM] | CC50 (in vitro; [16]) [µM] | CC50 (in vitro; [17]) [µM] | CC50 (in vitro; [21]) [µM] | CC50 (in vitro; [22]) [µM] | CC50 (in vitro; [23]) [µM] | CC50 (in vitro; [24]) [µM] | EC50 (H3N2 Perth/16/2009 [6]; [27]) [µM] | EC50 (H3N2 Perth/16/2009 [6]; [28]) [µM] | EC50 (H1N1 California/07/2009 [7]; [29]) [µM] | EC50 (H1N1 California/07/2009 [7]; [30]) [µM] | other results
1 | CCCC[C@H](NC(C)=O)C(=O)N[C@@H](CC(=O)O)C(=O)N[C@H](C(=O)N[C@@H](CC(N)=O)C(=O)N[C@]1(C)CCCCCCC=CCCC[C@@](C)(C(=O)N[C@@H](C)C(=O)N[C@@H](C)C(=O)N[C@@H](C)C(=O)N[C@@H](C)C(=O)N[C@@H](C)C(N)=O)NC(=O)[C@H](C)NC(=O)[C@H](CC(C)C)NC(=O)[C@H](Cc2ccccc2)NC(=O)[C@H](CC(C)C)NC(=O)[C@H](CC(C)C)NC(=O)[C@H]([C@@H](C)O)NC1=O)C(C)C [SP-25] (Ac-[Nle]DVN[R8]TLLFLA[S5]AAAAA-NH2; staple 5-12) | < 1.5 | 0.43 | 49 | 49 | < 1.5 | 6.6 | 8.2 | 1.1 | > 50 | > 100 | > 100 | > 100 | > 100 | > 100 | > 100 | > 100 | < 1.5 | 0.34 | < 1.5 | 0.57 | CC50 (in vitro; [18]): > 100 µM; CC50 (in vitro; [19]): > 100 µM; CC50 (in vitro; [20]): > 100 µM; CC50 (in vitro; [25]): > 100 µM; CC50 (in vitro; [26]): > 100 µM; EC50 [3]: 3.6 µM; EC50 (H7N9 A/Anhui/1/2013): 33 µM; EC50 [4]: > 50 µM; EC50 [5]: 6.5 µM
2 | CCCC[C@H](NC(C)=O)C(=O)N[C@@H](CC(=O)O)C(=O)N[C@H](C(=O)N[C@@H](CC(N)=O)C(=O)N[C@]1(C)CCCCCCC=CCCC[C@@](C)(C(=O)N[C@@H](CCC(N)=O)C(=O)N[C@@H](C)C(=O)N[C@@H](CCC(N)=O)C(=O)N[C@@H](C)C(=O)N[C@@H](C)C(N)=O)NC(=O)[C@H](C)NC(=O)[C@H](CC(C)C)NC(=O)[C@H](Cc2ccccc2)NC(=O)[C@H](CC(C)C)NC(=O)[C@H](CC(C)C)NC(=O)[C@H]([C@@H](C)O)NC1=O)C(C)C [SP-26] (Ac-[Nle]DVN[R8]TLLFLA[S5]QAQAA-NH2; staple 5-12) | 10 to 25 | 23 | – | – | 1.5 to 10 | – | – | 2.1 | – | > 100 | > 100 | – | > 100 | > 100 | > 100 | > 100 | 10 to 25 | 14 | < 1.5 | 0.75 | –
3 | CCCC[C@H](NC(C)=O)C(=O)N[C@@H](CC(=O)O)C(=O)N[C@H](C(=O)N[C@@H](CC(N)=O)C(=O)N[C@]1(C)CCCCCCC=CCCC[C@@](C)(C(=O)N[C@@H](CCC(N)=O)C(=O)N[C@@H](C)C(=O)N[C@@H](C)C(=O)N[C@@H](C)C(=O)N[C@@H](C)C(N)=O)NC(=O)[C@H](C)NC(=O)[C@H](CC(C)C)NC(=O)[C@H](Cc2ccccc2)NC(=O)[C@H](CC(C)C)NC(=O)[C@H](CC(C)C)NC(=O)[C@H]([C@@H](C)O)NC1=O)C(C)C [SP-27] (Ac-[Nle]DVN[R8]TLLFLA[S5]QAAAA-NH2; staple 5-12) | 1.5 to 10 | 1.7 | 35 | 35 | < 1.5 | 8.7 | 8 | 0.44 | > 50 | > 100 | > 100 | > 100 | > 100 | > 100 | > 100 | > 100 | < 1.5 | 0.32 | < 1.5 | 0.57 | CC50 (in vitro; [18]): > 100 µM; CC50 (in vitro; [19]): > 100 µM; CC50 (in vitro; [20]): > 100 µM; CC50 (in vitro; [25]): > 100 µM; CC50 (in vitro; [26]): > 100 µM; EC50 [3]: 32 µM; EC50 (H7N9 A/Anhui/1/2013): 9.6 µM; EC50 [4]: > 50 µM; EC50 [5]: 75 µM
